Earlier results on 1 molecule are cited in publication PMC9888480, “Carboranyl-1,8-naphthalimide intercalators induce lysosomal membrane permeabilization and ferroptosis in cancer cell lines” (Journal of Enzyme Inhibition and Medicinal Chemistry, 2023).

Data set [1] deals with HepG2. On the set-up: method as in PMID 31776032. As to conditions: footnote of Table 2, reference compounds; cited from earlier work.
For data set [2], the system named is ct-DNA. Also on record: method as in PMID 33803403. The note with it: unmodified mitonafide and pinafide; cited from earlier work.
In data set [3] the target is human topoisomerase IIα. On the set-up: method as in PMID 35562989. As to conditions: earlier study of 4-carboranyl-1,8-naphthalimides; read-out: anti-Topo II activity IC50; cited from earlier work.

Molecules are shown by their SMILES.

Take `CN(C)CCN1C(=O)c2cccc3cc([N+](=O)[O-])cc(c23)C1=O` [mitonafide]: the IC50 in data set [1] was less than 1 µM; in data set [3], 5.13 µM. In data set [2], the ΔTm was 5.17 °C.

As usually defined, the IC50 is the midpoint of a concentration-inhibition curve. Broadly, the ΔTm is the change in melting temperature against a reference sample.
